One assay deals with T1, BRD4 long (Homo sapiens, UniProt O60885).
T1 construct: endogenous in cells; host or cells: HEK293T
Put plainly: BRD4 (long) degradation assay, Western blotting. Type of assay: cell-based. The procedure:
(§1) C33A cells were purchased from American Type Culture Collection (ATCC) and were cultured in Dulbecco's Modified Eagle Medium (DMEM) containing 10% (v/v) fetal bovine serum (FBS) and maintained at 37° C. with 5% CO2. 22RV1 cells were purchased from the ATCC and were cultured in RPMI-1640 Medium containing 10% (v/v) FBS and maintained at 37° C. with 5% CO2. HEK293T cells were obtained from the UC Berkeley Cell Culture Facility and were cultured in DMEM containing 10% (v/v) FBS and maintained at 37° C. with 5% CO2. K562 cells were obtained from the UC Berkeley Cell Culture Facility and were cultured in Iscove's Modified Dulbecco's Medium (IMDM) containing 10% (v/v) FBS and maintained at 37° C. with 5% CO2. MV-4-11 cells were obtained from the ATCC and were cultured in IMDM containing 10% (v/v) FBS and maintained at 37° C. with 5% CO2. A549 cells were obtained from the ATCC and were cultured in F-12K Medium containing 10% (v/v) FBS and maintained at 37° C. with 5% CO2. Mino cells were obtained from the ATCC and were cultured in RPMI-1640 Medium containing 10% (v/v) FBS and maintained at 37° C. with 5% CO2. LNCaP cells were obtained from the ATCC and were cultured in RPMI-1640 Medium containing 10% (v/v) FBS and maintained at 37° C. with 5% CO2. Unless otherwise specified, all cell culture materials were purchased from Gibco. It is not known whether HEK293T cells are from male or female origin.
(§2) Cells were washed twice with cold PBS, scraped, and pelleted by centrifugation (700 g, 5 min, 4° C.). Pellets were resuspended in PBS, sonicated, clarified by centrifugation (12,000 g, 10 min, 4° C.), and lysate was transferred to new low-adhesion microcentrifuge tubes. Proteome concentrations were determined using BCA assay and lysate was diluted to appropriate working concentrations.
(§3) Proteins were resolved by SDS/PAGE and transferred to nitrocellulose membranes using the Trans-Blot Turbo transfer system (Bio-Rad). Membranes were blocked with 5% BSA in Tris-buffered saline containing Tween 20 (TBS-T) solution for 30 min at RT, washed in TBS-T, and probed with primary antibody diluted in recommended diluent per manufacturer overnight at 4° C. After 3 washes with TBS-T, the membranes were incubated in the dark with IR680- or IR800-conjugated secondary antibodies at 1:10,000 dilution in 5% BSA in TBS-T at RT for 1 h. After 3 additional washes with TBST, blots were visualized using an Odyssey Li-Cor fluorescent scanner. The membranes were stripped using ReBlot Plus Strong Antibody Stripping Solution (EMD Millipore) when additional primary antibody incubations were performed. Antibodies used in this study were CDK4 (Abcam ab108357), Vinculin (Abcam ab129002), GAPDH (Cell Signaling Technology 14C10), RNF126 (Santa Cruz Biotechnology sc-376005), BRD4 (Abcam ab128874), Beta Actin (Cell Signaling Technology 13E5), PDE5 (Abcam ab259945), AR-V7 (Abcam ab273500), c-Abl (Santa Cruz Biotechnology sc-23), SMARCA2 (Abcam ab240648), LRRK2 (Abcam ab133474), BTK (Cell Signaling Technology D3H5), Androgen Receptor (Abcam ab133273).
For orientation: In western blotting, separated proteins are transferred to a membrane and probed.

The next assay has as its target T2, BRD4 short (Homo sapiens, UniProt O60885).
T2 construct: endogenous in cells; host or cells: HEK293T
Put plainly: BRD4 (short) degradation assay, Western blotting. It counts as cell-based. The procedure:
as §1, §2, §3

The mark [1] stands for this setting: first value of cell (long/short).
Setting [2] is: second value of cell (long/short).

Each structure is given as a SMILES string.

A word on the DC50: it is the midpoint of the concentration-degradation curve. The low end stands for a more potent degrader, the high end for a less potent degrader. Regarding `COc1ccc(C(=O)/C(C)=C/C(=O)N2CCN(C(=O)C[C@@H]3N=C(c4ccc(Cl)cc4)c4c(sc(C)c4C)-n4c(C)nnc43)CC2)cc1` [Compound 139, (S,E)-4-(4-(2-(4-(4-chlorophenyl)-2,3,9-trimethyl-6H-thieno[3,2-f][1,2,4]triazolo[4,3-a][1,4]diazepin-6-yl)acetyl)piperazin-1-yl)-1-(4-methoxyphenyl)-2-methylbut-2-ene-1,4-dione], the DC50 at BRD4 long (setting [1]) and at BRD4 short (setting [2]) was above 1000 nM each time.

With `Cc1sc2c(c1C)C(c1ccc(Cl)cc1)=N[C@@H](CC(=O)N1CCN(C(=O)/C=C/C(=O)c3ccccc3)CC1)c1nnc(C)n1-2` [Compound 140, (S,E)-1-(4-(2-(4-(4-chlorophenyl)-2,3,9-trimethyl-6H-thieno[3,2-f][1,2,4]triazolo[4,3-a][1,4]diazepin-6-yl)acetyl)piperazin-1-yl)-4-phenylbut-2-ene-1,4-dione], the DC50 on BRD4 long (setting [1]) and on BRD4 short (setting [2]) was below 100 nM in each case.

Regarding `COc1ccc(C(=O)/C=C(\C)C(=O)N2CCN(C(=O)C[C@@H]3N=C(c4ccc(Cl)cc4)c4c(sc(C)c4C)-n4c(C)nnc43)CC2)cc1` [Compound 141, (S,E)-1-(4-(2-(4-(4-chlorophenyl)-2,3,9-trimethyl-6H-thieno[3,2-f][1,2,4]triazolo[4,3-a][1,4]diazepin-6-yl)acetyl)piperazin-1-yl)-4-(4-methoxyphenyl)-2-methylbut-2-ene-1,4-dione], the DC50 on BRD4 long (setting [1]) and at BRD4 short (setting [2]) was above 1000 nM in each case.

For `COc1ccccc1C(=O)/C=C/C(=O)N1CCN(C(=O)C[C@@H]2N=C(c3ccc(Cl)cc3)c3c(sc(C)c3C)-n3c(C)nnc32)CC1` [Compound 142, (S,E)-1-(4-(2-(4-(4-chlorophenyl)-2,3,9-trimethyl-6H-thieno[3,2-f][1,2,4]triazolo[4,3-a][1,4]diazepin-6-yl)acetyl)piperazin-1-yl)-4-(2-methoxyphenyl)but-2-ene-1,4-dione], the DC50 on BRD4 long (setting [1]) and at BRD4 short (setting [2]) was below 100 nM each time.

For the compound `COc1cccc(C(=O)/C=C/C(=O)N2CCN(C(=O)C[C@@H]3N=C(c4ccc(Cl)cc4)c4c(sc(C)c4C)-n4c(C)nnc43)CC2)c1` [Compound 143, (S,E)-1-(4-(2-(4-(4-chlorophenyl)-2,3,9-trimethyl-6H-thieno[3,2-f][1,2,4]triazolo[4,3-a][1,4]diazepin-6-yl)acetyl)piperazin-1-yl)-4-(3-methoxyphenyl)but-2-ene-1,4-dione], the DC50 at BRD4 long (setting [1]) and at BRD4 short (setting [2]) was below 100 nM throughout.

For `COc1ccc(C(=O)/C=C(\C#N)C(=O)N2CCN(C(=O)C[C@@H]3N=C(c4ccc(Cl)cc4)c4c(sc(C)c4C)-n4c(C)nnc43)CC2)cc1` [Compound 144, (S,E)-2-(4-(2-(4-(4-chlorophenyl)-2,3,9-trimethyl-6H-thieno[3,2-f][1,2,4]triazolo[4,3-a][1,4]diazepin-6-yl)acetyl)piperazine-1-carbonyl)-4-(4-methoxyphenyl)-4-oxobut-2-enenitrile], the DC50 on BRD4 long (setting [1]) and at BRD4 short (setting [2]) was above 1000 nM in each case.

In the case of `Cc1sc2c(c1C)C(c1ccc(Cl)cc1)=N[C@@H](CC(=O)N1CCN(C(=O)/C=C/C(=O)c3ccc(F)cc3)CC1)c1nnc(C)n1-2` [Compound 202, (S,E)-1-(4-(2-(4-(4-chlorophenyl)-2,3,9-trimethyl-6H-thieno[3,2-f][1,2,4]triazolo[4,3-a][1,4]diazepin-6-yl)acetyl)piperazin-1-yl)-4-(4-fluorophenyl)but-2-ene-1,4-dione], the DC50 on BRD4 long (setting [1]) and at BRD4 short (setting [2]) was below 100 nM each time.

As to `Cc1sc2c(c1C)C(c1ccc(Cl)cc1)=N[C@@H](CC(=O)N1CCN(C(=O)/C=C/C(=O)c3ccc4c(c3)NC(=O)CO4)CC1)c1nnc(C)n1-2` [Compound 203, (S,E)-1-(4-(2-(4-(4-chlorophenyl)-2,3,9-trimethyl-6H-thieno[3,2-f][1,2,4]triazolo[4,3-a][1,4]diazepin-6-yl)acetyl)piperazin-1-yl)-4-(3-oxo-3,4-dihydro-2H-benzo[b][1,4]oxazin-6-yl)but-2-ene-1,4-dione], the DC50 on BRD4 long (setting [1]) and at BRD4 short (setting [2]) was 10 to 100 nM each time.

With `Cc1sc2c(c1C)C(c1ccc(Cl)cc1)=N[C@@H](CC(=O)N[C@H]1C[C@H](NC(=O)/C=C/C(=O)c3ccccc3)C1)c1nnc(C)n1-2` [Compound 204, (E)-N-((1S,3r)-3-(2-((S)-4-(4-chlorophenyl)-2,3,9-trimethyl-6H-thieno[3,2-f][1,2,4]triazolo[4,3-a][1,4]diazepin-6-yl)acetamido)cyclobutyl)-4-oxo-4-phenylbut-2-enamide], the DC50 on BRD4 long (setting [1]) and at BRD4 short (setting [2]) was 10 to 100 nM each time.

Consider `COc1ccc(C(=O)/C=C/C(=O)N2CCN(C(=O)C[C@@H]3N=C(c4ccc(Cl)cc4)c4c(sc(C)c4C)-n4c(C)nnc43)CC2)cn1` [Compound 205, (S,E)-1-(4-(2-(4-(4-chlorophenyl)-2,3,9-trimethyl-6H-thieno[3,2-f][1,2,4]triazolo[4,3-a][1,4]diazepin-6-yl)acetyl)piperazin-1-yl)-4-(6-methoxypyridin-3-yl)but-2-ene-1,4-dione], for which the DC50 at BRD4 long (setting [1]) and at BRD4 short (setting [2]) was 10 to 100 nM each time.

Consider `COc1ccc(C(=O)/C=C/C(=O)N[C@H]2C[C@@H](NC(=O)C[C@@H]3N=C(c4ccc(Cl)cc4)c4c(sc(C)c4C)-n4c(C)nnc43)C2)cn1` [Compound 206, (E)-N-((1R,3s)-3-(2-((S)-4-(4-chlorophenyl)-2,3,9-trimethyl-6H-thieno[3,2-f][1,2,4]triazolo[4,3-a][1,4]diazepin-6-yl)acetamido)cyclobutyl)-4-(6-methoxypyridin-3-yl)-4-oxobut-2-enamide], for which the DC50 at BRD4 long (setting [1]) and on BRD4 short (setting [2]) was 10 to 100 nM in each case.

On to `COc1ccc(C(=O)/C=C/C(=O)N[C@H]2C[C@H](NC(=O)C[C@@H]3N=C(c4ccc(Cl)cc4)c4c(sc(C)c4C)-n4c(C)nnc43)C2)cn1` [Compound 207, (E)-N-((1S,3r)-3-(2-((S)-4-(4-chlorophenyl)-2,3,9-trimethyl-6H-thieno[3,2-f][1,2,4]triazolo[4,3-a][1,4]diazepin-6-yl)acetamido)cyclobutyl)-4-(6-methoxypyridin-3-yl)-4-oxobut-2-enamide], for which the DC50 at BRD4 long (setting [1]) and at BRD4 short (setting [2]) was 10 to 100 nM throughout.

`Cc1sc2c(c1C)C(c1ccc(Cl)cc1)=N[C@@H](CC(=O)N1CCN(C(=O)/C=C/C(=O)c3ccc4c(c3)OCC4)CC1)c1nnc(C)n1-2` [Compound 208, (S,E)-1-(4-(2-(4-(4-chlorophenyl)-2,3,9-trimethyl-6H-thieno[3,2-f][1,2,4]triazolo[4,3-a][1,4]diazepin-6-yl)acetyl)piperazin-1-yl)-4-(2,3-dihydrobenzofuran-6-yl)but-2-ene-1,4-dione]: the DC50 on BRD4 long (setting [1]) and on BRD4 short (setting [2]) was below 10 nM throughout.

In the case of `Cc1sc2c(c1C)C(c1ccc(Cl)cc1)=N[C@@H](CC(=O)N[C@H]1C[C@H](NC(=O)/C=C/C(=O)c3ccc4c(c3)OCC4)C1)c1nnc(C)n1-2` [Compound 209, (E)-N-((1S,3r)-3-(2-((S)-4-(4-chlorophenyl)-2,3,9-trimethyl-6H-thieno[3,2-f][1,2,4]triazolo[4,3-a][1,4]diazepin-6-yl)acetamido)cyclobutyl)-4-(2,3-dihydrobenzofuran-6-yl)-4-oxobut-2-enamide], the DC50 at BRD4 long (first value of cell, range with lower bound in nM and upper bound in μM) is 100 to 1000 nM; on BRD4 short (second value of cell, range with lower bound in nM and upper bound in μM), 100 to 1000 nM.

The compound `Cc1sc2c(c1C)C(c1ccc(Cl)cc1)=N[C@@H](CC(=O)N[C@H]1C[C@H](NC(=O)/C=C/C(=O)N3CC4(COC4)C3)C1)c1nnc(C)n1-2` [Compound 254, (E)-N-((1S,3r)-3-(2-((S)-4-(4-chlorophenyl)-2,3,9-trimethyl-6H-thieno[3,2-f][1,2,4]triazolo[4,3-a][1,4]diazepin-6-yl)acetamido)cyclobutyl)-4-oxo-4-(2-oxa-6-azaspiro[3.3]heptan-6-yl)but-2-enamide] gave a DC50 at BRD4 short (setting [2]) above 5000 nM.
